Structures can show the parent of a compound that is named as a salt.
Legend:
[1] = Toxicity study (bone marrow, GI tract, liver, body weight); type: in vivo, C57BL/6 mice; settings: 24 h after 4 IV injections of 40 mg/kg irinotecan
Text: Irinotecan exerts major systemic toxicological effects (e.g., neutropenia and diarrhea) when used as a free drug monotherapy or in combination with 5-FU (i.e., FOLFIRI regimen) in CRC (Cunningham et al. (1998) The Lancet, 352, 1413-1418; Rougier et al. (1998) The Lancet, 352: 1407-1412; Saltz et al. (2000) N. Engl. J Med. 343: 905-914). This constitutes one of the principal reasons for considering encapsulated irinotecan delivery. […] The possibility of acute myelosuppression effects was assessed by the collection of whole blood 24 h after the last IV injection, as well as looking at bone marrow cellularity (Id.). […] The visual appearance was confirmed by computer software that semi-quantitatively scored the total marrow cellularity and hematopoietic nuclei in the histology images (FIG. 13, panel A) (Travlos (2006) Toxicol. Pathol. 34: 548-565). […]
To compare the toxicity of different irinotecan formulations, a toxicity study was performed in healthy female C57BL/6 mice using a published protocol (Iusuf et al. (2014) Mol. Cancer Ther. 13: 492-503). […] H&E staining to assess bone marrow and hematopoietic cellularity in the sternum was analyzed by Aperio ImageScope software (Travlos (2006) Toxicol. Pathol. 34: 548-565).

MC38 cells = test: MTS cytotoxicity assay, MC38 cells; type: cell-based, murine; settings: MC38 colon cancer cells
Description: (§1) The cytotoxicity of purified MSNPs was assessed in a standard MTS assay (CellTiter 96® AQueous One Solution Cell Proliferation Assay, Promega). KPC or MC38 cells were plated at a density of 5×10^3 cells per well in a 96-well plate and cultured for 24 hr. The medium was replaced with fresh medium containing the different NPs at the indicated concentrations. Non-treated cells were used as control. After a 48 hr treatment, the medium was replaced with 100 μL fresh medium containing MTS solution (5:1, v/v medium/CellTiter 96® Aqueous stock solution) for further culture at 37° C. for 1 hr. The absorbance of the culture wells at 490 nm was directly recorded by a microplate reader (M5e, Molecular Device, USA). Wells without cells but contained the same MTS solution were used as blank. The relative cell viability (%) is [(the absorption of treated well−blank)/(the absorption of control well−blank)]×100.

orthotopic MC38 tumor = test: Efficacy and survival in the orthotopic MC38 tumor chunk colon cancer model; type: in vivo, C57BL/6 mice
[2] = system: orthotopic KPC-derived PDAC tumor; test: Efficacy and survival in the orthotopic KPC-derived PDAC model; type: in vivo, B6/129SF1/J mice; settings: 40 mg/kg twice per week, three IV administrations, n=3
KPC cells = test: MTS cytotoxicity assay, KPC cells; type: cell-based, murine; settings: KPC pancreatic cancer cells
Description: as §1

non-metastatic PDAC = settings: cited from earlier work

SMILES	bone marrow cellularity / myelosuppressive effects (sternum H&E) [1]	neutrophil count / neutropenia (differential WBC counts) [1]	in vitro killing effect (MTS) (MC38 cells)	tumor growth by IVIS bioluminescence imaging (orthotopic MC38 tumor; 40 mg/kg irinotecan equivalent IV twice per week, up to day 21, n=6)	survival (Kaplan-Meier, Log-rank) (orthotopic MC38 tumor; 40 mg/kg irinotecan equivalent IV twice per week, up to six administrations, n=6)	rate of apoptosis (cleaved caspase-3 IHC) in orthotopic tumors (orthotopic MC38 tumor; 24 h after the 4th IV injection, 40 mg/kg, n=3) [%]	primary tumor growth and metastasis (IVIS imaging) [2]	in vitro killing effect (MTS) (KPC cells)	disease-free survival (non-metastatic PDAC) [months]
CCc1c2c(nc3ccc(OC(=O)N4CCC(N5CCCCC5)CC4)cc13)-c1cc3c(c(=O)n1C2)COC(=O)[C@]3(O)CC [free irinotecan, Irinotecan hydrochloride trihydrate]	significant myelosuppressive effects	significant degree of neutropenia	most robust killing effect	no significant tumor growth inhibition	no significant survival benefit	~2.5	inefficient tumor inhibition	most robust killing effect	
Nc1ccn([C@@H]2O[C@H](CO)[C@@H](O)C2(F)F)c(=O)n1 [gemcitabine]									12.8
